≈ marks a conversion by molar mass, not a printed value.
Experiments:
[1] = tested on: human mixed lymphocyte reaction (MLR); experiment: human mixed lymphocyte reaction (MLR) activity; type: cell-based; conditions: read-out: MLR activity(IC50, mg/ml)
Procedure: The measurement of the human MLR activity of the macrocyclic lactones of this invention carried out by standard procedures which are described in the literature (D. P. Dubey et al., in Manual of Clinical Laboratory Immunology, 3rd Ed., pp847-858, 1986). The cytotoxicities of the macrocyclic lactones were measured by the standard procedure (T. Mosmann, J., J. Immunol. Methods, 65, 55-63, 1983). The concentration of their cytotoxicities is several ten times higher than that of their MLR activities.

Candida albicans = experiment: anti-Candida albicans activity, agar plate dilution method with paper disk, inhibition zone; type: cell-based; conditions: Concentration 40 mg/disk; paper disk 8 mm; agar medium for neomycin assay
Source text: The paper disk (8 mm, Advantic) and agar medium for neomycin assay (Difco) were used in the tests. As the novel macrocyclic lactones inhibit the growth of Candida albicans, they have an antifungal activity.

IC50 [1]: 0.01 µg/mL (≈ 0.0109 µM)
SMILES: CO[C@H]1C[C@@H]2CC[C@@H](C)[C@@](O)(O2)C(=O)C(=O)N2CCCC[C@H]2C(=O)O[C@H]([C@H](C)C[C@@H]2CC[C@@H](O)[C@H](OC)C2)CC(=O)[C@H](C)/C=C(\C)[C@@H](O)[C@@H](OC)C(=O)[C@H](C)C[C@H](C)/C=C/C=C/C=C/1C [Rapamycin, rapamycin]
The diameter of inhibition zone (mm) (Candida albicans): 25 mm

— patent EP0627009B1, “MACROCYCLIC LACTONES AND A PRODUCTIVE STRAIN THEREOF” (PFIZER INC., priority 1992, dated 1993)
